Assay results published in patent US9439888B2, “Tetrazolones as a carboxylic acid bioisosteres” (RIGEL PHARMACEUTICALS, INC., priority 2015, dated 2016).

Key:
[1] = biological target: T1, retinoid X receptor alpha (RXRa) (Homo sapiens, UniProt P19793); test: RXRα agonist activity assay
T1 sequence (P19793 1-462): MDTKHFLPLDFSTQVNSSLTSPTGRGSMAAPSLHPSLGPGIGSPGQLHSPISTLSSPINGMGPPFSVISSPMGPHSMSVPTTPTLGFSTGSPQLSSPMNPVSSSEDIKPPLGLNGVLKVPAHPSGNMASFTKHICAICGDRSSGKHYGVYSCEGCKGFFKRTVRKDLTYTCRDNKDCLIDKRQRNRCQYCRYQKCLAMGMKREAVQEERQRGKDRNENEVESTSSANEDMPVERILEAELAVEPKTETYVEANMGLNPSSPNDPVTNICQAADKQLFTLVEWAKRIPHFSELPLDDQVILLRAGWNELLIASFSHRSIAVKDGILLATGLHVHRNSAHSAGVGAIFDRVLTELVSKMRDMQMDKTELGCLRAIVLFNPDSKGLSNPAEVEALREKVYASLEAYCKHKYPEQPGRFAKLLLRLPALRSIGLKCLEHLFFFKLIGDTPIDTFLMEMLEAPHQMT

[2] = biological target: T2, angiotensin II receptor type 1 (AT1) (Homo sapiens, UniProt P30556); test: AT1 antagonist activity: inhibition of response to 3 nM angiotensin-II, intracellular Ca2+ by fluorimetry; format: cell-based; details: HEK-293 cells expressing hAT1
T2 construct: expressed in transfected cells; host or cells: HEK-293
T2 sequence (P30556 1-359): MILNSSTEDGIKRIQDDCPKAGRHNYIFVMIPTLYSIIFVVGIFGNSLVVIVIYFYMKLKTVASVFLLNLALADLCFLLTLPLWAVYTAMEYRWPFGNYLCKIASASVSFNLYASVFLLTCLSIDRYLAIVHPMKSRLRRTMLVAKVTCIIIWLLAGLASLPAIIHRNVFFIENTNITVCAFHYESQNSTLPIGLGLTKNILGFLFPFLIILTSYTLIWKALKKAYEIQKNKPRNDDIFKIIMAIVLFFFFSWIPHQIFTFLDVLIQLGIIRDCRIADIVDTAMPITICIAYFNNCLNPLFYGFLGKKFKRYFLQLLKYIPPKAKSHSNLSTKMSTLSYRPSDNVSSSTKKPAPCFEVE

| SMILES | EC50 [1] [nM] | IC50 [2] [nM] | Kb [2] [nM] |
| --- | --- | --- | --- |
| C=C(c1ccc(-n2nn[nH]c2=O)cc1)c1cc2c(cc1C)C(C)(C)CCC2(C)C [6u, 1-(4-(1-(3,5,5,8,8-pentamethyl-5,6,7,8-tetrahydronaphthalen-2-yl)vinyl)phenyl)-1,4-dihydro-5h-tetrazol-5-one] | 64 | – | – |
| CCCc1nc2c(C)cc(-c3nc4ccccc4n3C)cc2n1Cc1ccc(-c2ccccc2-n2nn[nH]c2=O)cc1 [6t] | – | 1.7 | 0.14 |
